Experimental data published in patent publication US8673617B2, “Culture medium for Haemophilus influenzae type B” (Sanofi Pasteur SA, priority 2007, dated 2014).

What was measured:
[1] = tested on: Haemophilus influenzae serotype b; experiment: PRP production in liquid casein hydrolysate (HAC) medium with increasing hemin (sandwich ELISA on supernatant); type: cell-based; conditions: for Mean PRP / PRP in mg/l Assay 1 / PRP in mg/l Assay 2: HAC medium, 16 h
Experimental: (§1) The production of PRP obtained after 16 hours of bacterial culture in liquid plant peptones-based culture media in which the heme source was either hemin or protoporphyrin IX of animal origin (porcine protoporphyrin) in disodium salt form, or protoporphyrin IX of purely synthetic origin in disodium salt form was compared. The hemin and protoporphyrin IX concentration ranges in the culture media varied from about 0.010 g/l to about 2 g/l so as to obtain PRP titration curves as a function of the heme source tested and as a function of the plant peptone tested. An enzymatic hydrolysate of garden pea peptone provided by Kerry (Hy pea 7404) and a wheat peptone provided by Organotechnie (19559) were tested at a concentration in the culture medium equivalent to 0.87 g/l of protein nitrogen. By reference to the current methods for the production of PRP, PRP production was also measured in a medium that contains a peptone of animal origin, such as casein hydrolysate (HAC) provided by Solabia at a concentration in the medium equivalent to 0.87 g/l with increased concentrations of hemin (see table III).
(§2) 1.1) Preparation of the Media • 1.1.1. Stock solution of β-NAD (Fluka) at 1 g/l in water which was ultrafiltered and then sterilized by filtration through 0.22 μm. • 1.1.2. Stock solution of hemin (Sigma) at 0.25 g/l in water was ultrafiltered, comprising 5 ml of 25% aqueous ammonia (Cooper) to aid dissolution. The stock solution was sterilized by filtration through 0.22 μm. • 1.1.3. Stock solution of porcine protoporphyrin IX (Sigma) at 0.25 g/l in ultrafiltered water comprising 5 ml of 25% aqueous ammonia (Cooper) in order to facilitate the dissolution. The stock solution was sterilized by filtration through 0.22 μm. • 1.1.4. Stock solution of synthetic protoporphyrin IX at 0.25 g/l in ultrafiltered water comprising 5 ml of 25% aqueous ammonia (Cooper) in order to facilitate the dissolution. The stock solution was also heated to 80° C. in a water bath with stirring in order to complete the dissolution before being sterilized by filtration through 0.22 μm. The protoporphyrin IX, in disodium salt form, was synthesized according to the method described in the U.S. provisional patent application Ser. No. 12/057,574, filed Mar. 28, 2008 and application Ser. No. 60/943,735 and filed on Jun. 13, 2007 using the steps which are described in scheme 2. • The stock solutions of hemin and protoporphyrin IX were checked for their respective contents of active compounds after sterilizing filtration. The protoporphyrin IX and hemin contents were determined by Reversed Phase High Performance Liquid Chromatography (RP-HPLC). The chromatographic chain comprises a twin head pump module allowing the formation of a binary gradient, a programmable automatic injector, a diode array UV detector and a chromatographic column of the type Synergi 4 μm, Polar RP-80A (150×4.6) mm, ref 00F-4336-E0, Phenomenex. • The stock solution of hemin (Sigma) to be checked after filtration was diluted ⅓ in distilled water. The stock solutions of porcine protoporphyrin IX (Sigma) and of synthetic protoporphyrin IX to be checked after filtration were diluted ¼ in distilled water. In parallel, a calibration series was prepared in ammoniated water ranging from 0.025 g/l to 0.125 g/l of protoporphyrin IX from porcine protoporphyrin IX from Sigma (ref: 25838-5) and a calibration series ranging from 0.050 g/l to 0.150 g/l of hemin from hemin from Sigma (ref: H5533-256). The samples to be checked and the various solutions of the calibration series were injected in a volume of 20 μl (for the hemin solutions and samples) and of 5 μl (for the protoporphyrin IX solutions and samples). The initial mobile phase consisting of a volume for volume mixture of acetonitrile and 10 mM KH2PO4 pH 2.5 is set at a flow rate of 1 ml/min. A discontinuous gradient was then produced from this mobile phase in order to separate the molecules of interest which are detected at a wavelength of 400 nm. […]

[2] = tested on: Haemophilus influenzae serotype b; experiment: PRP production in liquid wheat peptone-based culture medium as a function of heme source (sandwich ELISA on supernatant); type: cell-based; conditions: for Mean PRP / PRP in mg/l Assay 1 / PRP in mg/l Assay 2: wheat medium, 16 h
Experimental: as §1, §2

C=CC1=C(C)c2cc3[n-]c(cc4nc(cc5[n-]c(cc1n2)c(C)c5CCC(=O)O)C(CCC(=O)O)=C4C)c(C)c3C=C.[Cl-].[Fe+3] [Hemin, hemin, reference compound]
Mean PRP ([1]; hemin 11.8 μg/l): 16.8 mg/L
PRP in mg/l Assay 1 ([1]; hemin 11.8 μg/l): 18.9 mg/L
PRP in mg/l Assay 2 ([1]; hemin 11.8 μg/l): 14.7 mg/L
Mean PRP ([1]; hemin 59 μg/l): 80.2 mg/L
PRP in mg/l Assay 1 ([1]; hemin 59 μg/l): 82.7 mg/L
PRP in mg/l Assay 2 ([1]; hemin 59 μg/l): 77.7 mg/L
Mean PRP ([1]; hemin 118 μg/l): 199.5 mg/L
PRP in mg/l Assay 1 ([1]; hemin 118 μg/l): 183 mg/L
PRP in mg/l Assay 2 ([1]; hemin 118 μg/l): 216 mg/L
Mean PRP ([1]; hemin 295 μg/l): 314.5 mg/L
PRP in mg/l Assay 1 ([1]; hemin 295 μg/l): 325 mg/L
PRP in mg/l Assay 2 ([1]; hemin 295 μg/l): 304 mg/L
Mean PRP ([1]; hemin 590 μg/l): 410.5 mg/L
PRP in mg/l Assay 1 ([1]; hemin 590 μg/l): 381 mg/L
PRP in mg/l Assay 2 ([1]; hemin 590 μg/l): 440 mg/L
Mean PRP ([1]; hemin 1180 μg/l): 414.5 mg/L
PRP in mg/l Assay 1 ([1]; hemin 1180 μg/l): 424 mg/L
PRP in mg/l Assay 2 ([1]; hemin 1180 μg/l): 405 mg/L
Mean PRP ([1]; hemin 1770 μg/l): 461.5 mg/L
PRP in mg/l Assay 1 ([1]; hemin 1770 μg/l): 404 mg/L
PRP in mg/l Assay 2 ([1]; hemin 1770 μg/l): 519 mg/L
Mean PRP ([1]; hemin 2360 μg/l): 464.5 mg/L
PRP in mg/l Assay 1 ([1]; hemin 2360 μg/l): 439 mg/L
PRP in mg/l Assay 2 ([1]; hemin 2360 μg/l): 490 mg/L
hemin concentration to obtain about 400 mg/l of PRP ([1]; casein hydrolysate and hemin-based medium): at least 500 μg/l
Mean PRP ([2]; hemin 11.8 μg/l): 5.3 mg/L
PRP in mg/l Assay 1 ([2]; hemin 11.8 μg/l): 4.98 mg/L
PRP in mg/l Assay 2 ([2]; hemin 11.8 μg/l): 5.61 mg/L
Mean PRP ([2]; hemin 59 μg/l): 13.35 mg/L
PRP in mg/l Assay 1 ([2]; hemin 59 μg/l): 13 mg/L
PRP in mg/l Assay 2 ([2]; hemin 59 μg/l): 13.7 mg/L
Mean PRP ([2]; hemin 118 μg/l): 17.60 mg/L
PRP in mg/l Assay 1 ([2]; hemin 118 μg/l): 17.7 mg/L
PRP in mg/l Assay 2 ([2]; hemin 118 μg/l): 17.5 mg/L
Mean PRP ([2]; hemin 295 μg/l): 32.75 mg/L
PRP in mg/l Assay 1 ([2]; hemin 295 μg/l): 35.3 mg/L
PRP in mg/l Assay 2 ([2]; hemin 295 μg/l): 30.2 mg/L
Mean PRP ([2]; hemin 590 μg/l): 72.4 mg/L
PRP in mg/l Assay 1 ([2]; hemin 590 μg/l): 71.4 mg/L
PRP in mg/l Assay 2 ([2]; hemin 590 μg/l): 73.4 mg/L
Mean PRP ([2]; hemin 1180 μg/l): 291.5 mg/L
PRP in mg/l Assay 1 ([2]; hemin 1180 μg/l): 327 mg/L
PRP in mg/l Assay 2 ([2]; hemin 1180 μg/l): 256 mg/L
Mean PRP ([2]; hemin 1770 μg/l): 466.5 mg/L
PRP in mg/l Assay 1 ([2]; hemin 1770 μg/l): 487 mg/L
PRP in mg/l Assay 2 ([2]; hemin 1770 μg/l): 446 mg/L
Mean PRP ([2]; hemin 2360 μg/l): 495.5 mg/L
PRP in mg/l Assay 1 ([2]; hemin 2360 μg/l): 487 mg/L
PRP in mg/l Assay 2 ([2]; hemin 2360 μg/l): 504 mg/L
heme source concentration required for optimum / equivalent PRP production ([2]; wheat peptone medium (FIG. 2)): about 1500 μg/l
